In patent US20120016124A1, “SEROTONIN REUPTAKE INHIBITORS” (Baylor University, priority 2007, published 2012):
Like-named read-outs stand apart in the source and are kept apart here.

Assays:
[1] = molecular target: T1, serotonin receptor 5-HT1A (Homo sapiens, UniProt P08908); test: NIH-PDSP binding assay, 5-HT1A (3H-8-OH-DPAT); conditions: for mean % inhibition 5-HT1A: Table 4, N=4 determinations, significant inhibition >50%, negative = stimulation of binding
T1 sequence (P08908 1-422): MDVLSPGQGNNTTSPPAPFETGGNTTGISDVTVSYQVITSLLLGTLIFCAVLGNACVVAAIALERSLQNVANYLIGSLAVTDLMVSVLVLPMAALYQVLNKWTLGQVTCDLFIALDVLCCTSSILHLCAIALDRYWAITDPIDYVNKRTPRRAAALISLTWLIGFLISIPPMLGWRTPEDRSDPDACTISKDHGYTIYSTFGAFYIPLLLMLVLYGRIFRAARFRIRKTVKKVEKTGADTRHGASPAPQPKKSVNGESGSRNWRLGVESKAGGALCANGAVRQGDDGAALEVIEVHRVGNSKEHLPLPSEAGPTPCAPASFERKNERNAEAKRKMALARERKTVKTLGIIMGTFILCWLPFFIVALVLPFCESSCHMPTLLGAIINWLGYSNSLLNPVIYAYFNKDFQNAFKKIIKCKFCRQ
Text: (§1) Biological Evaluation of selected compounds was done through the National Institutes of Health Psychoactive Drug Screening Program (NIH-PDSP). Biological evaluation of the synthesized molecules consisted of: (a) Neurotransmitter uptake assays for the human serotonin transporter (SERT), (b) Binding assays for the serotonin receptor 5-HT1A, (c) Binding assays for the serotonin receptor 5-HT2A, and (d) Comparison of the biological data obtained for the synthesized molecules with that of currently used psychotherapeutics.
(§2) All binding assays were carried out with an incubation time of 60 minutes at room temperature. All binding assays were performed in a similar manner, although the buffers used differ from assay to assay.
(§3) Table 2 below gives the (1) radioligand; (2) assay buffer; (3) unlabelled reference ligand; and (4) references to the commonly-known procedures which were used.
(§4) The assay buffer A was made up of 50 mM Tris-Cl, 0.1 mM EDTA, and 10 mM MgCl2, at a pH of 7.4. To perform the assay, a 96-well plate was set up as follows:
(§5) For the 3H-ligands 1-2 nM final concentration of radioligand was used. For 125I-radioligands, 0.05-0.1 nM final concentration was used. The following components were pipetted in the following order: binding buffer, radioligand, cold unknown ligand, cold reference ligand, and membranes. The wells were incubated at room temperature for 60 minutes. At the end of the incubation, the samples were harvested onto pre-soaked (0.3% polyethyleneimine) GF/C filters using a 96-well harvester. They were then washed with 3 quick washes using ice-cold harvest buffer. The filters were removed and air dried overnight. Samples were counted in a 96-well counter using 100 μl of scintillant/well. The Ki value of the reference compound was calculated using the LIGAND Program (Munson and Rodbard, 1980). The percent inhibition was calculated using the following formula: […]

[2] = molecular target: serotonin receptor 5-HT2A (Homo sapiens, UniProt P28223); test: NIH-PDSP binding assay, 5-HT2A (3H-ketanserin); conditions: for mean % inhibition 5-HT2A: Table 4, N=4 determinations, significant inhibition >50%, negative = stimulation of binding
Text: as §1, §2, §3, §4, §5

[3] = molecular target: human serotonin transporter (SERT) (Homo sapiens, UniProt P31645); test: NIH-PDSP transporter binding assay, SERT (3H-Citalopram); conditions: for mean % inhibition SERT: Table 4, N=4 determinations, significant inhibition >50%, negative = stimulation of binding; for affinity for SERT: in words, compounds 1b through 7b of Tables 4 and 5
Text: as §1, §2
The assay buffer H contained 50 mM Tris-HCl, […], and 5 mM KCl, at a pH of 7.4. For the peptide receptor binding assay, filters were pre-soaked for 7 days in 0.3% PEI. To perform the assay, a 96-well plate was set up as follows:
as §5

5-HT2A = 5-HT2A (Homo sapiens, UniProt P28223); conditions: cited from earlier work
SERT = SERT (Homo sapiens, UniProt P31645); conditions: reference compounds, Orjales, cited from earlier work
5HT1A, 5HT2A, SERT = test: Preliminary Analysis of Biological Data (NIH-PDSP binding profile); conditions: in words; compounds 1b through 7b of Tables 4 and 5
Text: as §1
Ten (10) of the sixteen (16) compounds synthesized were biologically evaluated. Compounds 10b, 11b and 12b were previously evaluated for their serotonin uptake ability as described in Example 5. For screening purposes, compounds 1b through 7b were analyzed for their affinity towards the serotonin 5-HT1A receptor as well as their affinity towards the 5-HT2A receptor and the SERT. Data in […] represent mean % inhibition (N=4 determinations) for compound tested at receptor subtypes. Significant inhibition is considered >50%. In cases where negative inhibition (−) is seen, this represents a stimulation of binding. Occasionally, compounds at high concentrations will non-specifically increase binding. Ki values were determined only for compounds with % inhibition>50%.

[4] = Table 8, Homologues Type II (Aminopropane Derivatives)
[5] = Table 8, Homologues Type II (Aminopropane Derivatives), — = No significant inhibition
[6] = Table 7, Homologues Type I (Aminoethane Derivatives), — = No significant inhibition
[7] = Table 7, Homologues Type I (Aminoethane Derivatives)
[8] = Table 5, determined only for % inhibition >50%

serotonin receptor 5-HT2A, sequence (P28223 whole entry): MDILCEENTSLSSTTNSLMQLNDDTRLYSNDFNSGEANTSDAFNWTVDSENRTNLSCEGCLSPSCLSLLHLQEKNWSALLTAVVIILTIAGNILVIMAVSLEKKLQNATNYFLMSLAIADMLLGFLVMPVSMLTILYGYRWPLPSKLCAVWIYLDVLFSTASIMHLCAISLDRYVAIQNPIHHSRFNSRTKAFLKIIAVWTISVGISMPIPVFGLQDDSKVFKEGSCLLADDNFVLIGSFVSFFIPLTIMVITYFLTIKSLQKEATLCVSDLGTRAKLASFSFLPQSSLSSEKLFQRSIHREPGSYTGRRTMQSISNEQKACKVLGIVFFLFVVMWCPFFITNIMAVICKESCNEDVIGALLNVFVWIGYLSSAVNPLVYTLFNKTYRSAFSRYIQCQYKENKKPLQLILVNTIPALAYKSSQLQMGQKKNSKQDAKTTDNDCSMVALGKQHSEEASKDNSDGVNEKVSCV
human serotonin transporter (SERT), sequence (P31645 whole entry): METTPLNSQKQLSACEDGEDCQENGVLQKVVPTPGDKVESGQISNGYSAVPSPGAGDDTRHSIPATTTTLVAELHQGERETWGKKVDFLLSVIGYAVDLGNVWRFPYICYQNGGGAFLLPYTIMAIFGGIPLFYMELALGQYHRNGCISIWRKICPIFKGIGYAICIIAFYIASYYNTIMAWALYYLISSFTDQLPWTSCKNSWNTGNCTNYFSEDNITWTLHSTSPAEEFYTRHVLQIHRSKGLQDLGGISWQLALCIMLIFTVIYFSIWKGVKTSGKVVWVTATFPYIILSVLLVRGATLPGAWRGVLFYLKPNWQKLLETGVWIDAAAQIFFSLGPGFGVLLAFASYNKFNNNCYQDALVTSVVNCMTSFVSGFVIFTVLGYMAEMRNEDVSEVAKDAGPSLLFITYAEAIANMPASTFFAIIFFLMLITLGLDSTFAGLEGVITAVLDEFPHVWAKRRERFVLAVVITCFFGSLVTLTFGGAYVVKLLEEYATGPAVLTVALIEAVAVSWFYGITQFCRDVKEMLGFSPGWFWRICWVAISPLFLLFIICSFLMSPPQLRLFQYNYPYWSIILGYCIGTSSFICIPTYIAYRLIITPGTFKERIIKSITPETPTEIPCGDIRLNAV
SERT, sequence (P31645 whole entry, species assumed): as the sequence (P31645 whole entry) above
5-HT2A, sequence (P28223 whole entry, species assumed): as the sequence (P28223 whole entry) above

Row | Compound | Ki [1, 4] [nM] | Ki [2, 5] [nM] | Ki [3, 4] [nM] | other results
1 | Fc1ccc(OC(CCN2CCN(c3cccc(C(F)(F)F)c3)CC2)c2ccccc2)cc1 (stereo not shown) [Compound 20b] | 20 | 747 | 330 | –
2 | Fc1ccc2c(C3CCN(CC(Oc4ccc(C(F)(F)F)cc4)c4ccccc4)CC3)noc2c1 (stereo not shown) [Compound 13b] | – | – | – | Ki [1, 6]: 1970 nM; Ki [2, 6]: > 10000 nM; Ki [3, 7]: 1650 nM
3 | Fc1ccc(OC(CN2CCN(c3ccccc3)CC2)c2ccccc2)cc1 (stereo not shown) [Compound 1] | – | – | – | mean % inhibition 5-HT1A [1]: 98.0%; Ki [1, 8]: 258 nM; mean % inhibition 5-HT2A [2]: 61.0%; Ki [2, 8]: 3490 nM; mean % inhibition SERT [3]: 12.0%; melting point: 80 to 82 °C
4 | Fc1ccc(OC(CCN2CCN(c3ccccc3)CC2)c2ccccc2)cc1 (stereo not shown) [Compound 16b] | 9 | 76 | 1130 | mean % inhibition 5-HT1A [1]: 100.0%; mean % inhibition 5-HT2A [2]: 96.0%; mean % inhibition SERT [3]: 62.0%
5 | O=C(CCCN1CCN(CCC(Oc2ccc(C(F)(F)F)cc2)c2ccccc2)CC1)c1ccc(F)cc1 (stereo not shown) [Compound 33b] | 5010 | 406 | 725 | –
6 | CCCN(CCC)C1CCc2cccc(O)c2C1 (stereo not shown) [Compound 8-OH-DPAT] | – | – | – | Ki (5-HT2A): > 1000 nM; Ki (SERT; Table 5, et al. 2003): > 1000 nM; Ki (SERT; Table 7, et. al., 2003): > 1000 nM; Ki (SERT; Table 8, et. al., 2003): > 1000 nM
7 | COc1ccccc1N1CCN(CC(Oc2ccc(C(F)(F)F)cc2)c2ccccc2)CC1 (stereo not shown) [Compound 5b] | – | – | – | Ki [1, 6]: 22 nM; Ki [2, 6]: > 10000 nM; Ki [3, 7]: ≥ 10000 nM
8 | FC(F)(F)c1ccc(OC(CN2CCN(c3cccc(Cl)c3)CC2)c2ccccc2)cc1 (stereo not shown) [Compound 3] | – | – | – | mean % inhibition 5-HT1A [1]: 71.0%; Ki [1, 8]: 712 nM; mean % inhibition 5-HT2A [2]: 17.0%; mean % inhibition SERT [3]: 22.0%
9 | FC(F)(F)c1ccc(OC(CCN2CCN(c3ccccc3)CC2)c2ccccc2)cc1 (single isomer, unassigned) [Compound 17b] | 315 | 605 | 761 | –
10 | Fc1ccc(OC(CCN2CCC(c3noc4cc(F)ccc34)CC2)c2ccccc2)cc1 (stereo not shown) [Compound 30b] | 8.6 | 398 | 1690 | –
11 | FC(F)(F)c1ccc(OC(CCN2CCN(c3cccc(C(F)(F)F)c3)CC2)c2ccccc2)cc1 (stereo not shown) [Compound 21b] | 193 | – | 1330 | –
12 | CN1CCN(CCC(Oc2ccc(C(F)(F)F)cc2)c2ccccc2)CC1 (stereo not shown) [Compound 27b] | 9560 | 1740 | 7010 | –
13 | FC(F)(F)c1ccc(OC(CN2CCN(c3cccc(C(F)(F)F)c3)CC2)c2ccccc2)cc1 (stereo not shown) [Compound 4b] | – | – | – | Ki [1, 6]: 1460 nM; Ki [3, 7]: 4510 nM
14 | CN1CCN(CCC(Oc2ccc(F)cc2)c2ccccc2)CC1 (stereo not shown) [Compound 26b] | > 10000 | 1330 | 2900 | –
15 | FC(F)(F)c1ccc(OC(CCN2CCN(c3ncccn3)CC2)c2ccccc2)cc1 (stereo not shown) [Compound 25b] | 434 | 1790 | 6820 | –
16 | Fc1ccc2c(C3CCN(CCC(Oc4ccc(C(F)(F)F)cc4)c4ccccc4)CC3)noc2c1 (stereo not shown) [Compound 31b] | 420 | 23.2 | 718 | –

Row | Compound | Ki [1, 4] [nM] | Ki [2, 5] [nM] | Ki [3, 4] [nM] | other results
17 | O=C(CCCN1CCN(CCC(Oc2ccc(F)cc2)c2ccccc2)CC1)c1ccc(F)cc1 (stereo not shown) [Compound 32b] | 2640 | 420 | 1350 | –
18 | O=C(c1ccc(F)cc1)C1CCN(CCC(Oc2ccc(F)cc2)c2ccccc2)CC1 (stereo not shown) [Compound 28b] | 234 | 69.6 | 6480 | –
19 | O=C(CCCN1CCN(CC(Oc2ccc(C(F)(F)F)cc2)c2ccccc2)CC1)c1ccc(F)cc1 (stereo not shown) [Compound 15b] | – | – | – | Ki [1, 6]: 2730 nM; Ki [2, 6]: 157 nM; Ki [3, 7]: 1380 nM
20 | Fc1ccc(OC(CCN2CCN(c3cccc(Cl)c3)CC2)c2ccccc2)cc1 (stereo not shown) [Compound 18b] | 11 | 94 | 289 | –
21 | FC(F)(F)c1ccc(OC(CCN2CCN(c3cccc(Cl)c3)CC2)c2ccccc2)cc1 (stereo not shown) [Compound 19b] | 311 | 1340 | 357 | –
22 | Fc1ccc(OC(CCN2CCN(c3ncccn3)CC2)c2ccccc2)cc1 (stereo not shown) [Compound 24b] | 803 | 853 | ≥ 10000 | –
23 | FC(F)(F)c1ccc(OC(CN2CCN(c3ccccc3)CC2)c2ccccc2)cc1 (stereo not shown) [Compound 2b] | – | – | – | Ki [1, 6]: 392 nM; Ki [3, 7]: > 10000 nM
24 | O=C(CCCN1CCN(CC(Oc2ccc(F)cc2)c2ccccc2)CC1)c1ccc(F)cc1 (stereo not shown) [Compound 14b] | – | – | – | Ki [1, 6]: 1180 nM; Ki [2, 6]: ≥ 10000 nM; Ki [3, 7]: 1120 nM
25 | O=C(c1ccc(F)cc1)C1CCN(CCC(Oc2ccc(C(F)(F)F)cc2)c2ccccc2)CC1 (stereo not shown) [Compound 29b] | 304 | 73.7 | 1240 | –
26 | Fc1ccc(OC(CN2CCN(c3ccccc3)CC2)c2ccccc2)cc1 (stereo not shown) [Compound 1b] | – | – | – | Ki [1, 6]: 99 nM; Ki [2, 6]: 1120 nM; Ki [3, 7]: > 10000 nM; affinity for SERT [3]: low affinity; dual activity towards the 5-HT2A receptor and the SERT (5HT1A, 5HT2A, SERT): desired dual activity towards the 5-HT2A receptor and the SERT, although low
27 | COc1ccccc1N1CCN(CCC(Oc2ccc(F)cc2)c2ccccc2)CC1 (stereo not shown) [Compound 22b] | 4 | 761 | 2440 | –
28 | FC(F)(F)c1ccc(OC(CCN2CCN(c3ccccc3)CC2)c2ccccc2)cc1 (stereo not shown) [Compound 2b] | – | – | – | mean % inhibition 5-HT1A [1]: 91.0%; Ki [1, 8]: 716 nM; mean % inhibition 5-HT2A [2]: 81.0%; Ki [2, 8]: 195 nM; mean % inhibition SERT [3]: 67.0%; Ki [3, 8]: 1870 nM; affinity for SERT [3]: low affinity; dual activity towards the 5-HT2A receptor and the SERT (5HT1A, 5HT2A, SERT): desired dual activity towards the 5-HT2A receptor and the SERT, although low
29 | COc1ccccc1N1CCN(CCC(Oc2ccc(C(F)(F)F)cc2)c2ccccc2)CC1 (stereo not shown) [Compound 23b] | 42.1 | 1420 | 2200 | –
30 | CN1CCN(CC(Oc2ccc(C(F)(F)F)cc2)c2ccccc2)CC1 (stereo not shown) [Compound 9b] | – | – | – | Ki [2, 6]: 405 nM; Ki [3, 7]: 3660 nM
31 | FC(F)(F)c1ccc(OC(CN2CCN(c3cccc(Cl)c3)CC2)c2ccccc2)cc1 (stereo not shown) [Compound 3b] | – | – | – | Ki [1, 6]: 649 nM; Ki [3, 7]: 4930 nM
